Patent publication US3953501A, “Triiodoisophthalic acid monoamino acid amides” (Schering Aktiengesellschaft, priority 1972, dated 1976)
Values joined by “and” are separate entries in the source; they are usually repeats but may differ in a detail not shown here. Equal entries are not always repeated.

Tests used:
Assay type in all cases: in vivo
rats [1] = assay: Intracerebral compatibility according to Valzelli; settings: methylglucamine salts, 200 mg. I/ml., dose evoking neurological symptoms (including convulsions and death) in 50% of animals, (1) = Iotalamat (H), (2) = compound
Method: (§1) All substances were tested as methylglucamine salts with 200 mg. I/ml. of solution. The intracerebral compatibility was determined on rats in accordance with Valzelli, Med. Exp. 11: 23-26 (1964).
(§2) As a measure of physiological compatibility, the ED50 was determined in each case, i.e., the dose at which an undesired array of neurological symptoms (including convulsions and death) is evoked in 50% of the animals.

rats [2] = assay: Cisternal compatibility (injection into suboccipital cisterna); settings: 0.008 - 0.200 ml./kg., methylglucamine salts, 200 mg. I/ml., neurological symptoms in 50% of animals, (1) = Iotalamat (H), (2) = compound
Method: as §1
In order to determine the cisternal compatibility, the test compounds were injected in varying doses (0.008 - 0.200 ml./kg.) by means of a Hamilton No. 710 syringe directly into the suboccipital cisterna of rats which were under a slight ether narcosis.
as §2

rats [3] = assay: Cerebral compatibility (injection into left common carotid artery); settings: 14.0 - 26.0 ml./kg., methylglucamine salts, 200 mg. I/ml., neurological symptoms in 50% of animals, (1) = Iotalamat (H), (2) = compound
Method: as §1
Cerebral compatibility was likewise determined on rats. In an operation under a slight ether narcosis, a catheter was affixed in the left common carotid artery; the distal end of the catheter, after having been passed through the lateral connective tissue of the neck, was fixed in the center of the back. Three hours later, the test compounds were cranially injected in varying doses (14.0 - 26.0 ml./kg.) into the artery.
as §2

Compound	ED50 intracerebral compatibility according to Valzelli (myelography) (rats [1])	ED50 cisternal compatibility (myelography) (rats [2])	ED50 cerebral compatibility (angiography) (rats [3])
CNC(=O)C(C)NC(=O)c1c(I)c(NC(C)=O)c(I)c(C(=O)O)c1I (racemic) [B, N-(3-Carboxy-5-acetamido-2,4,6-triiodobenzoyl)-DL-alanine Methylamide]	66.30 mg. I/kg.	16.7 mg. I/kg.	–
CNC(=O)C(CO)NC(=O)c1c(I)c(NC(=O)COC)c(I)c(C(=O)O)c1I (racemic) [F, N-(3-Carboxy-5-methoxyacetamido-2,4,6-triiodobenzoyl)-DL-serine Methylamide]	81.32 mg. I/kg.	22.8 mg. I/kg.	3.78 g I/kg
CC(=O)Nc1c(I)c(C(=O)O)c(I)c(C(=O)NCC(N)=O)c1I [A, N-(3-Carboxy-5-acetamido-2,4,6-triiodobenzoyl)-glycine Amide]	70.72 mg. I/kg.	11.17 mg. I/kg.	–
CNC(=O)CNC(=O)c1c(I)c(NC(=O)COC)c(I)c(C(=O)O)c1I [C, N-(3-Carboxy-5-methoxyacetamido-2,4,6-triiodobenzoyl)-glycine Methylamide]	53.97 mg. I/kg.	20.04 mg. I/kg.	–
CNC(=O)c1c(I)c(NC(C)=O)c(I)c(C(=O)N(C)CC(=O)O)c1I [D, N-(3-Methylaminocarbonyl-5-acetamido-2,4,6-triiodobenzoyl)-sarcosine]	76.21 mg. I/kg.	11.93 mg. I/kg.	3.99 g I/kg
CC(=O)Nc1c(I)c(C(N)=O)c(I)c(C(=O)NCC(=O)O)c1I [E, N-(3-Aminocarbonyl-5-acetamido-2,4,6-triiodobenzoyl)-glycine]	69.84 mg. I/kg.	14.42 mg. I/kg.	–
CNC(=O)CNC(=O)c1c(I)c(NC(=O)CO)c(I)c(C(=O)O)c1I [G, N-(3-Carboxy-5-hydroxyacetamido-2,4,6-triiodobenzoyl)-glycine Methylamide]	62.62 mg. I/kg.	11.8 mg. I/kg.	3.55 g I/kg
CNC(=O)c1c(I)c(NC(C)=O)c(I)c(C(=O)O)c1I [H, 3-acetamido-5-methylcarbamoyl-2,4,6-triiodobenzoic acid, reference compound]	59.83 mg. I/kg. and 56.59 mg. I/kg. and 60.86 mg. I/kg. and 61.92 mg. I/kg. and 61.28 mg. I/kg.	10.56 mg. I/kg. and 11.8 mg. I/kg. and 9.8 mg. I/kg. and 10.9 mg. I/kg. and 10.07 mg. I/kg. and 10.30 mg. I/kg.	–
